Reference: patent publication EP0158267A2, “Pharmaceutical composition containing 5-(2-fluorophenyl)-1,3-dihydro-3-hydroxy-7-nitro- or 5-(2-fluorophenyl)-1,3-dihydro-3-hydroxy-1-methyl-7-nitro-2H-1,4-benzodiazepin-2-one and process for their preparation” (Dolorgiet Beteiligungs-GmbH, priority 1984, dated 1985)

Tests used:
[1] = Acute toxicity, oral, 7 days observation (Litchfield and Wilcoxon); format: in vivo, Maus; conditions: in vivo; mouse, oral, 7 days observation; * = highest technically applicable dose; read-out: Akute Toxi-zität LD50 mg/kg KG. Maus oral
Description: (§1) Für diesen Versuch wurden je 10 männliche und weibliche Mäuse verwendet. Die Testsubstanzen wurden als Suspension in wässriger Carboxymethylcellulose per Magensonde verabreicht. Die Beobachtungszeit betrug 7 Tage. Die Ergebnisse wurden nach der Methode von G.T. Litchfield und F.G. Wilcoxon (J. Pharmacol. Exp. Ther. 96, 1949, 99) errechnet. Die Ergebnisse sind in der nachfolgenden Tabelle zusammengestellt.

Maus [2] = assay: as above; format: in vivo; conditions: for Zustand nach 24 h: mouse, oral, condition of animals 24 h after dosing; for Toxizität / Zustand der überlebenden Tiere: statement in words; for Zustand der überlebenden Tiere: findings above the dose without findings
Description: as §1

Maus [3] = assay: Prolongation of hexobarbital sleeping time (barbiturate narcosis, method of Fujimoto et al.); format: in vivo; conditions: for Verlängerung der Schlaf-zeit in % bei der Maus nach peroraler Gabe von 1mg/kg KG.: mouse, 1 mg/kg p.o., 30 min before 80 mg/kg hexobarbital i.v., versus control group; for schlafverlängernde Wirkung: statement in words
Protocol: (1) Verlängerung der Schlafzeit
Die Wirkung auf die Barbiturat-Narkose wurde in der Versuchsanordnung von J.M. Fujimoto et al. (J. Pharmacol. Exp. Ther. 129, 1960, 139) nachgewiesen. Gruppen von jeweils 10 männlichen Mäusen wurden die Testsubstanzen als Suspension in wässriger Carboxymethylcellulose mittels einer Stahlsonde auf oralem Weg direkt in den Magen verabreicht. 30 Minuten später wurde den Tieren 80 mg/kg Hexobarbital in eine Schwanzvene injiziert. Es wurde die Dauer des Schlafs gemessen und aus den Schlafzeiten der einzelnen Tiere der Kontroll-und Dosisgruppen die jeweiligen Mittelwerte berechnet. Die Verlängerung der Schlafzeit wurde in Prozent gegenüber der Kontrollgruppe berechnet.

[4] = Sleep induction (onset), no method described; format: in vivo; conditions: statement in words
Maus [5] = assay: Fighting test: inhibition of current-induced fighting (method of Tedeschi et al.); format: in vivo; conditions: statement in words; for tranquillisierende Wirkung im Kampftest: DP 327 compared with Flunitrazepam
Description: Die Hemmwirkung gegenüber strominduzierter Kampfhandlungen bei Mäusen wurde in der Versuchsanordnung von R. Tedeschi et al. (J. Pharmacol. Exp. Ther. 125, 1959, 28) ermittelt. 10 Paare weiblicher Mäuse werden am Vortag des Versuches 3 Minuten elektrischen Stromstößen von 3,5 mA, 5 Hz und 5 msec ausgesetzt. Am Versuchstag werden die Testsubstanzen als Suspension in wässriger Carboxymethylcellulose mittels Magensonde peroral verabreicht. 30 Minuten nach der Verabreichung werden jeweils ein Paar in einem Testkäfig wieder den Stromstößen ausgesetzt und die innerhalb von 3 Minuten ausgelösten Kampfhandlungen gezählt. Die Zahl der Kampfhandlungen der jeweiligen Dosisgruppen werden addiert und in Prozent gegenüber der Kontrollgruppe berechnet. Der ED50-Wert wurde mittels halblogarithmischer Regression aus den Dosis-Wirkungsbeziehungen bestimmt.

[6] = DP 327 compared with Flunitrazepam, Beispiel 12 of DE-OS 14 45 873 compared with DP 327

SMILES | LD50 at 168 h [1] [mg/kg] | Zustand nach 24 h (Maus [2]) | Toxizität (Maus [2]) | Verlängerung der Schlaf-zeit in % bei der Maus nach peroraler Gabe von 1mg/kg KG. (Maus [3]) [%] | schlafverlängernde Wirkung (Maus [3]; [6]) | Toxizität (Maus [2]; compared with Lormetazepam) | Zustand der überlebenden Tiere (Maus [2]) | Todesfälle (Maus [2]; up to the highest applicable dose of 8687 mg/kg) | Schlafinduktion [4] | tranquillisierende Wirkung (Maus [5]; compared with Lormetazepam) | tranquillisierende Wirkung im Kampftest (Maus [5]) | schlafverlängernde Wirkung (Maus [3]; compared with Lormetazepam)
CN1C(=O)C(O)N=C(c2ccccc2)c2cc([N+](=O)[O-])ccc21 (centres unmarked) [DE-OS 14 45 873 Beispiel 12, reference compound] | 4700 | bis 3200 mg/kg ohne Befund; ab 3200 mg/kg starke Sedierung, Koma. | toxischer als DP 327 | 99 | geringerer schlafverlängernder Wirkung |  |  |  |  |  |  | 
CN1C(=O)C(O)N=C(c2ccccc2F)c2cc([N+](=O)[O-])ccc21 (centres unmarked) [DP 327, 5-(2-Fluorphenyl)-1,3-dihydro-3-hydroxy-1-methyl-7-nitro-2H-1,4-benzodiazepin-2-on] | > 8690 | bis 3600 mg/kg ohne Befund; 4824-8687 mg/kg leichte Sedierung. | sehr wenig toxisch | 156 | gleichwertig | deutlich überlegen | nur eine leichte Sedierung und Stereotypie | nur vereinzelt Todesfälle | rasche Schlafinduktion | deutlich überlegen | etwa doppelt so starke tranquillisierende Wirkung | deutlich überlegen
O=C1Nc2ccc([N+](=O)[O-])cc2C(c2ccccc2F)=NC1O (centres unmarked) [DP 370, 5-(2-Fluorphenyl)-1,3-dihydro-3-hydroxy-7-nitro-2H-1,4-benzodiazepin-2-on] | > 10000 | bis 4640 mg/kg ohne Befund; ab 4640 mg/kg leichte Sedierung Sedierung, und Ataxie. | wesentlich geringeren Toxizität als die genannten Vergleichssubstanzen | 118 | gute schlafverlängerde Wirkung |  |  |  |  |  | gute tranquillisierende | 
CN1C(=O)CN=C(c2ccccc2F)c2cc([N+](=O)[O-])ccc21 [Flunitrazepam, 5-(2-Fluorphenyl)-1,3-dihydro-1-methyl-7-nitro-2H-1,4-benzodiazepin-2-on, reference compound] | 2700 | bis 1100 mg/kg ohne Befund; ab 1100 mg/kg starke Sedierung, Koma, Stereotypie. |  | 179 |  |  | von starker Sedierung und Stereotypie bis zum Koma |  | langsam einsetzt |  |  | 
CN1C(=O)C(O)N=C(c2ccccc2Cl)c2cc(Cl)ccc21 (centres unmarked) [Lormetazepam, 7-Chlor-5-(2-chlorphenyl)-1,3-dihydro-3-hydroxy-1-methyl-2H-1,4-benzodiazepin-2-on, reference compound] | 6300 | 900-1240 mg/kg leichte Sedierung; ab 1700 mg/kg zunehmend starke Sedierung. |  | 78 |  |  |  |  | fehlt |  |  | 
